Drawing on patent US10273267B2, “Beta-hairpin peptidomimetics as selective elastase inhibitors” (POLYPHOR AG, priority 2013, dated 2019), this text covers IC50, hNE/PPE selectivity and hNE/hPr3 selectivity for 9 molecules.

SMILES strings stand for the structures. *1 amine or outer side, *2 acyl side, *3 side chain or, on linkers, in order; H or OH if unused. Where a SMILES comes first, the peptide text is derived from it. [ ]: non-standard residue; d: D form. X3 = O=C(CC[C@H](Cc1ccc(O)cc1)N[*:1])[*:2]; X2 = C[C@@H](O)[C@@H](CCC(=O)[*:2])N[*:1]; Gly(octyl) = CCCCCCCC[C@H](N)C(=O)O; hSer = N[C@@H](CCO)C(=O)O; Aze = O=C(O)[C@@H]1CCN1; Nlys = NCCCCNCC(=O)O

Format in all cases: biochemical
Assay [1] concerns the target T1, human neutrophil elastase (Homo sapiens, UniProt P08246).
T1 construct: purchased Serva Electrophoresis, Germany
T1 sequence (P08246 30-267): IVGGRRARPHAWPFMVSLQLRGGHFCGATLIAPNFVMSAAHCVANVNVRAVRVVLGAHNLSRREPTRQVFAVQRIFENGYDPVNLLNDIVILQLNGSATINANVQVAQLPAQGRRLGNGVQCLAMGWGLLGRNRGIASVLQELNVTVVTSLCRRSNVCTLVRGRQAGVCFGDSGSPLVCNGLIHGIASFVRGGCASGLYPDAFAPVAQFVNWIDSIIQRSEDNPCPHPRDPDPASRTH
Kind of assay: Inhibition of human neutrophil elastase (hydrolysis of MeOSuc-AAPV-pNA). Particulars: substrate MeOSuc-AAPV-pNA 0.3 mM, enzyme 10 nM, 37° C., pH 8; read-out: Human neutrophil elastase (hNE) IC50. How it is done:
2.2 Inhibition of Human Neutrophil Elastase
The ability of the peptides of the invention to inhibit the hydrolysis activity of human neutrophil elastase (Serva Electrophoresis, Germany) using the synthetic tetrapeptidic substrate MeOSuc-AAPV-pNA (Bachem, Switzerland) was determined as follows:
The above substrate (0.3 mM) and human neutrophil elastase (10 nM) were incubated at 37° C. with serial dilutions of the peptides (1% DMSO final) in assay buffer (50 mM Tris, pH 8, 300 mM NaCl, 0.01% Tween20). The release of pNA was followed by monitoring the change in absorbance at 405 nm for 30 minutes. Control assays with the same assay set-up as above, but without peptide, ran linearly. The dose-response data were fitted to the 4-parameter Hill equation providing the IC50 value using Graphpad (Prism 5).

Assay [2] addresses T2, porcine pancreatic elastase (Sus scrofa, UniProt P00772).
T2 construct: purchased Sigma, USA
Kind of assay: Inhibition of porcine pancreatic elastase (hydrolysis of MeOSuc-AAA-pNA). Particulars: for hNE/PPE selectivity: ratio of PPE IC50 to hNE IC50; for IC50: substrate MeOSuc-AAA-pNA 1 mM, enzyme 15 nM, 37° C., pH8, read-out: Porcine pancreatic elastase (PPE) IC50. As for the experimental part:
2.3 Inhibition of Porcine Pancreatic Elastase
The ability of the peptides of the invention to inhibit the hydrolysis activity of porcine pancreatic elastase (Sigma, USA) using the synthetic tripeptidic substrate MeOSuc-AAA-pNA (Bachem, Switzerland) was determined as follows:
The above substrate (1 mM) and […] porcine pancreatic elastase (15 nM) were incubated at 37° C. with serial dilutions of the peptides (0.5% DMSO final) in assay buffer (50 mM Tris, pH8, 100 mM NaCl, 0.01% Tween20). The release of pNA was followed by monitoring the change in absorbance at 405 nm for 30 minutes. Control assays with the same assay set-up as above, but without peptide, ran linearly. The dose-response data were fitted to the 4-parameter Hill equation providing the IC50 value using Graphpad (Prism 5).

Another assay has as its target T3, human proteinase 3 (Homo sapiens, UniProt P24158).
T3 construct: purchased Elastin Products Company, USA
T3 sequence (P24158 28-248): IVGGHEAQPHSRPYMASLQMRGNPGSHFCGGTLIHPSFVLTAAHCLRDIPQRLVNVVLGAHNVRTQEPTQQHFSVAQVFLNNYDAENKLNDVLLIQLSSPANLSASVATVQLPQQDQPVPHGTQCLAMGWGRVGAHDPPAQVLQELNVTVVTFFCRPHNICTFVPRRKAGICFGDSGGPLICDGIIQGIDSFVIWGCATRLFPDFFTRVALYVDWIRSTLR
Kind of assay: Inhibition of human proteinase 3 (substrate Boc-Ala-Ala-Nva-SBzl). Particulars: for hNE/hPr3 selectivity: ratio of hPr3 IC50 to hNE IC50; for IC50: substrate Boc-Ala-Ala-Nva-SBzl 1 mM, enzyme 10 nM, 37° C., pH7.4, read-out: Human proteinase 3 (hPr3) IC50. As for the experimental part:
2.4 Inhibition of Human Proteinase 3
The inactivation of human proteinase 3 (Elastin Products Company, USA) by the peptides of the invention using synthetic tripeptidic substrate Boc-Ala-Ala-Nva-SBzl (Elastin Products Company, USA) was determined as follows:
The above substrate (1 mM), 4,4′-dithiodipyridine (250 μM) and human proteinase 3 (10 nM) were incubated at 37° C. with serial dilutions of the peptides (0.5% DMSO final) in assay buffer (50 mM Tris, pH7.4, 150 mM NaCl, 0.01% Tween20). The reaction process was followed by monitoring the change in absorbance at 340 nm for 30 minutes. Control assays with the same assay set-up as above, but without peptide, ran linearly. The dose-response data were fitted to the 4-parameter Hill equation providing the IC50 value using Graphpad (Prism 5).

T2 sequence (P00772 27-266): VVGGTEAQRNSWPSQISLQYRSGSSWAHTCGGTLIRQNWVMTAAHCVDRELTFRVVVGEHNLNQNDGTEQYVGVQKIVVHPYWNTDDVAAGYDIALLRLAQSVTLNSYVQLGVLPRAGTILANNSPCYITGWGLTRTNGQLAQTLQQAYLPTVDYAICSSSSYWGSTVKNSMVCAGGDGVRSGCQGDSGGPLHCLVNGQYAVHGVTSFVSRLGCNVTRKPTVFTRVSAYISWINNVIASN

Turning to `CC[C@H](C)[C@@H]1NC(=O)[C@H](CO)NC(=O)[C@H](C)NC(=O)[C@H]([C@@H](C)O)NC(=O)[C@H](CCC(=O)O)NC(=O)[C@H](CCC(=O)N[C@@H](Cc2ccccc2)C(=O)O)NC(=O)[C@@H]2CCCN2C(=O)[C@H]2CCCN2C(=O)[C@H](Cc2ccc(O)cc2)NC(=O)[C@H](CCCCN)NC(=O)[C@H](CCC(N)=O)NC(=O)[C@@H]2CCCN2C(=O)[C@@H]2CCCN2C1=O` [Example 18, Cyclo(-Glu(Phe)-Glu-Thr-Ala-Ser-Ile-Pro-Pro-Gln-Lys-Tyr-^DPro-Pro-)] (cyclo(E(Phe)ETASIPPQKY[dP]P)), the IC50 in assay [1] is 15.9 nM. Also, in assay [2], the hNE/PPE selectivity came out at 4660 and the 50% inhibitory concentration (IC50) stood at 74100 nM. In addition, on human proteinase 3, the hNE/hPr3 selectivity is given as 2906 and the IC50 worked out at 46200 nM.

`CCCCCCCC[C@@H]1NC(=O)[C@H](C(C)C)NC(=O)[C@@H](Cc2ccc(O)cc2)NC(=O)[C@H]([C@@H](C)O)NC(=O)[C@H](CCCCN)NC(=O)[C@H](CCC(N)=O)NC(=O)[C@@H]2CCCN2C(=O)[C@@H]2CCCN2C(=O)[C@H]([C@@H](C)CC)NC(=O)[C@H](CO)NC(=O)[C@H](C)NC(=O)[C@H]([C@@H](C)O)NC(=O)[C@H](CCC(=O)O)NC1=O` [Example 23, Cyclo(-OctGly-Glu-Thr-Ala-Ser-Ile-Pro-Pro-Gln-Lys-Thr-^DTyr-Val-)] (cyclo([Gly(octyl)]ETASIPPQKT[dY]V)): in assay [1], the IC50 worked out at 6 nM. For the same molecule, in assay [2], the hNE/PPE selectivity is on record as 1717 and the IC50 turned out to be 10300 nM. Also, at human proteinase 3, the hNE/hPr3 selectivity was determined as 1717 and the IC50 turned out to be 10300 nM.

`CCCCCCCC[C@@H]1NC(=O)[C@@H]2CCCN2C(=O)[C@H]2CCCN2C(=O)[C@H](CCO)NC(=O)[C@H](CCCCN)NC(=O)[C@H](CCC(N)=O)NC(=O)[C@@H]2CCCN2C(=O)[C@@H]2CCCN2C(=O)[C@H]([C@@H](C)CC)NC(=O)[C@H](CO)NC(=O)[C@H](C)NC(=O)[C@H]([C@@H](C)O)NC(=O)[C@H](CCC(=O)O)NC1=O` [Example 4, Cyclo(-OctGly-Glu-Thr-Ala-Ser-Ile-Pro-Pro-Gln-Lys-hSer-^DPro-Pro-)] (cyclo([Gly(octyl)]ETASIPPQK[hSer][dP]P)): the IC50 in assay [1] is 8.6 nM; in assay [2] it was 1350 nM; at human proteinase 3 it was 1020 nM. Also, the hNE/PPE selectivity in assay [2] is on record as 157. In addition, the hNE/hPr3 selectivity on human proteinase 3 turned out to be 119.

With `CCCCCCCC[C@@H]1NC(=O)[C@@H]2CCCN2C(=O)[C@H]2CCCN2C(=O)[C@H]([C@@H](C)O)NC(=O)[C@H](CCCCN)NC(=O)[C@H](CCC(N)=O)NC(=O)CN(CCCCN)C(=O)[C@@H]2CCCN2C(=O)[C@H]([C@@H](C)CC)NC(=O)[C@H](CO)NC(=O)[C@H](C)NC(=O)[C@H]([C@@H](C)O)NC(=O)[C@H](CCC(=O)O)NC1=O` [Example 35, Cyclo(-OctGly-Glu-Thr-Ala-Ser-Ile-Pro-Nlys-Gln-Lys-Thr-^DPro-Pro-)] (cyclo([Gly(octyl)]ETASIP[Nlys]QKT[dP]P)), in assay [1], the half-inhibitory concentration (IC50) was determined as 7.7 nM. In assay [2], the hNE/PPE selectivity stood at 208 and the IC50 is 1600 nM. Moreover, at human proteinase 3, the hNE/hPr3 selectivity stood at 195 and the half-maximal inhibitory concentration (IC50) amounted to 1500 nM.

Regarding `CCCCCCCC[C@@H]1NC(=O)[C@@H]2CCCN2C(=O)[C@H]2CCCN2C(=O)CC[C@H](Cc2ccc(O)cc2)NC(=O)[C@H](CCCCN)NC(=O)[C@H](CCC(N)=O)NC(=O)[C@@H]2CCCN2C(=O)[C@@H]2CCCN2C(=O)[C@H]([C@@H](C)CC)NC(=O)[C@H](CO)NC(=O)[C@H](C)NC(=O)[C@H]([C@@H](C)O)NC(=O)[C@H](CCC(=O)O)NC1=O` [Example 8, Cyclo(-OctGly-Glu-Thr-Ala-Ser-Ile-Pro-Pro-Gln-Lys-[H-γ^4-DiHTyr-OH]-^DPro-Pro-)] (cyclo([Gly(octyl)]ETASIPPQK[X3][dP]P)), the IC50 in assay [1] came to 19.8 nM; in assay [2], 1810 nM; at human proteinase 3 it was 3330 nM. Further, in assay [2], the hNE/PPE selectivity was found to be 91. For the same molecule, at human proteinase 3, the hNE/hPr3 selectivity is on record as 168.

As for `CCCCCCCC[C@@H]1NC(=O)[C@@H]2CCCN2C(=O)[C@H]2CCCN2C(=O)CC[C@H]([C@@H](C)O)NC(=O)[C@H](CCCCN)NC(=O)[C@H](CCC(N)=O)NC(=O)[C@@H]2CCCN2C(=O)[C@@H]2CCCN2C(=O)[C@H]([C@@H](C)CC)NC(=O)[C@H](CO)NC(=O)[C@H](C)NC(=O)[C@H]([C@@H](C)O)NC(=O)[C@H](CCC(=O)O)NC1=O` [Example 11, Cyclo(-OctGly-Glu-Thr-Ala-Ser-Ile-Pro-Pro-Gln-Lys-[H-γ^4-DiHThr-OH]-^DPro-Pro-)] (cyclo([Gly(octyl)]ETASIPPQK[X2][dP]P)), in assay [1], the IC50 turned out to be 11.5 nM. Moreover, in assay [2], the hNE/PPE selectivity is on record as 4217 and the IC50 is 48500 nM. At human proteinase 3, the hNE/hPr3 selectivity was found to be 1835 and the IC50 came out at 21100 nM.

Regarding `CCCCCCCC[C@@H]1NC(=O)[C@@H]2CCCN2C(=O)[C@H]2CCCN2C(=O)[C@H]([C@@H](C)O)NC(=O)[C@H](CCCCN)NC(=O)[C@H](CCC(N)=O)NC(=O)[C@@H]2CCN2C(=O)[C@@H]2CCCN2C(=O)[C@H]([C@@H](C)CC)NC(=O)[C@H](CO)NC(=O)[C@H](C)NC(=O)[C@H]([C@@H](C)O)NC(=O)[C@H](CCC(=O)O)NC1=O` [Example 46, Cyclo(-OctGly-Glu-Thr-Ala-Ser-Ile-Pro-Azt-Gln-Lys-Thr-^DPro-Pro-)] (cyclo([Gly(octyl)]ETASIP[Aze]QKT[dP]P)), the IC50 in assay [1] came to 7.1 nM. Further, in assay [2], the hNE/PPE selectivity is given as 268 and the half-maximal inhibitory concentration (IC50) stood at 1900 nM. On human proteinase 3, the hNE/hPr3 selectivity amounted to 310 and the IC50 worked out at 2200 nM.

On to `CCCCCCCC[C@@H]1NC(=O)[C@@H]2CCCN2C(=O)[C@H]2CCCN2C(=O)[C@H]([C@@H](C)O)NC(=O)[C@H](CCCCN)NC(=O)[C@H](CCC(N)=O)NC(=O)[C@@H]2CCCN2C(=O)CN(CCCCN)C(=O)[C@H]([C@@H](C)CC)NC(=O)[C@H](CO)NC(=O)[C@H](C)NC(=O)[C@H]([C@@H](C)O)NC(=O)[C@H](CCC(=O)O)NC1=O` [Example 33, Cyclo(-OctGly-Glu-Thr-Ala-Ser-Ile-Nlys-Pro-Gln-Lys-Thr-^DPro-Pro-)] (cyclo([Gly(octyl)]ETASI[Nlys]PQKT[dP]P)), for which the results for the IC50 (in assay [1]; in assay [2]; at human proteinase 3) were 7 nM, 8300 nM and 6100 nM, respectively. Moreover, the hNE/PPE selectivity in assay [2] was determined as 1186. In addition, on human proteinase 3, the hNE/hPr3 selectivity is given as 871.

Take `CCCCCCCC[C@@H]1NC(=O)[C@H](Cc2ccc(O)cc2)NC(=O)[C@@H](Cc2ccc(O)cc2)NC(=O)[C@H]([C@@H](C)O)NC(=O)[C@H](CCCCN)NC(=O)[C@H](CCC(N)=O)NC(=O)[C@@H]2CCCN2C(=O)[C@@H]2CCCN2C(=O)[C@H]([C@@H](C)CC)NC(=O)[C@H](CO)NC(=O)[C@H](C)NC(=O)[C@H]([C@@H](C)O)NC(=O)[C@H](CCC(=O)O)NC1=O` [Example 24, Cyclo(-OctGly-Glu-Thr-Ala-Ser-Ile-Pro-Pro-Gln-Lys-Thr-^DTyr-Tyr-)] (cyclo([Gly(octyl)]ETASIPPQKT[dY]Y)): in assay [1], the half-maximal inhibitory concentration (IC50) was 11.6 nM. In assay [2], the hNE/PPE selectivity worked out at 1112 and the 50% inhibitory concentration (IC50) worked out at 12900 nM. In addition, on human proteinase 3, the hNE/hPr3 selectivity worked out at 664 and the IC50 is 7700 nM.
